Data as given in patent publication US20020127186A1, “Use of electrolytes (lons in solution) to suppress charging of inhalation aerosols” (priority 2000, published 2002).

What was measured:
[1] = Net aerosol electric charge of AERx aerosols, measured with a Faraday cup; assay type: physicochemical
Experimental: The AERx™ system (as described and disclosed in U.S. Pat. Nos. 5,544,646 and 6,123,068) produces aerosols by extruding the liquid contents of a single dose blister packet (here 45 uL) through an array of micro-drilled holes. The jets formed during the extrusion process are entrained by the patient inhalation air flow. (Schuster J et al., In Drug Delivery to the Lungs VIII, pp14-17, 1997; Schuster J et al., In Respiratory Drug Delivery VI, pp. 83-90, 1998).
For the measurements of electric charge, the air flow was simulated with pressurized house air. A Faraday cup was inserted in the flow path of the aerosol a few centimeters downstream from the point of generation. It comprised a perforated aluminum cartridge filled with a paper filter, which was inserted into and insulated from a grounded metal enclosure, used as a shield from external electromagnetic noise. A coaxial wire connected to the aluminum cartridge was passed through the metal enclosure and connected to a current-voltage converter of the op-amp design (ammeter). The voltage output from the ammeter was acquired as a function of time by a computer together with other information about the extrusion process, such as the position of the piston that pressurizes the blister pack during an extrusion.
The formulations tested in EXAMPLES 1, 2 and 3 were de-ionized water (DI), sterile water for injection USP (WFI), 5 mM and 10 mM sodium chloride in water, and 30 mg/ml sodium cromoglycate (cromolyn) in water.
The region between aerosol generation and the Faraday cup was inspected after each extrusion (“run”), and any residue found was wiped clean. This region was all metallic in the system used here and comprised two separable parts, the so-called “clamp”, in which the packet is held and the aerosol is generated, and the so-called “diffuser”, which is positioned immediately downstream from the clamp. This diffuser was removed in some of the Examples herein discussed.
A measure of the net electric charge carried by the bolus was obtained from the numerical integral over time of the electric current signals. […]

[2] = Residue between aerosol generation and Faraday cup, inspected after each extrusion; assay type: physicochemical; conditions: EXAMPLE 1, diffuser on; 30 mg/ml in water; compared with DI water
Source text: The region between aerosol generation and the Faraday cup was inspected after each extrusion (“run”), and any residue found was wiped clean. This region was all metallic in the system used here and comprised two separable parts, the so-called “clamp”, in which the packet is held and the aerosol is generated, and the so-called “diffuser”, which is positioned immediately downstream from the clamp. This diffuser was removed in some of the Examples herein discussed. […] Several runs carried out with a “dummy” packet that contained no liquid (labeled “no article” by the “X” in FIG. 1) gave rise to no measurable levels of charge. […] The difference in residue is another indication of high charging.

[3] = EXAMPLE 2, diffuser not present, solutions in water (5 and 10 mM NaCl; 30 mg/ml cromolyn), compared with WFI, FIG. 2

| net aerosol charge ([1]; EXAMPLE 1, diffuser on, 30 mg/ml in water, compared with DI water, FIG. 1) | SMILES | net aerosol charge [1, 3] | residue in the diffuser [2] |
| --- | --- | --- | --- |
|  | [Cl-].[Na+] [NaCl, sodium chloride] | much lower charge than water for injection |  |
| significantly reduced charge level | O=C(O)c1cc(=O)c2c(OCC(O)COc3cccc4oc(C(=O)O)cc(=O)c34)cccc2o1 [cromolyn, sodium cromoglycate] | much lower charge than water for injection | a small fraction of the initial packet contents |
